The text below walks through data of ChEMBL document CHEMBL1131723, “Synthesis and structure-activity relationship of novel glycylcycline derivatives leading to the discovery of GAR-936” (1999).

What all share (format): functional
In test [1] the test system is Escherichia coli. As to the kind of experiment: In vitro antibacterial activity against Escherichia coli UBMS 90-4 Tet M.
The subject of test [2] is Escherichia coli. As to the kind of experiment: In vitro antibacterial activity against Escherichia coli UBMS 90-5 sensitive.
The subject of test [3] is Escherichia coli. In words: In vitro antibacterial activity against Escherichia coli J3272 Tet D.
In test [4] the test system is Staphylococcus aureus. In words: In vitro antibacterial activity against Staphylococcus aureus UBMS 88-7 Tet K.
Test [5] has as its system Escherichia coli. As to the kind of experiment: In vitro antibacterial activity against Escherichia coli J3272 Tet C.
Test [6] deals with Staphylococcus aureus. As to the kind of experiment: In vitro antibacterial activity against Staphylococcus aureus UBMS 90-1 Tet M.
Test [7] has as its system Escherichia coli. In words: In vitro antibacterial activity against Escherichia coli UBMS 88-1 Tet B.
Test [8] relates to Staphylococcus aureus. As to the kind of experiment: In vitro antibacterial activity against Staphylococcus aureus UBMS 90-3 sensitive.
Test [9] concerns Staphylococcus aureus. In words: In vitro antibacterial activity against Staphylococcus aureus Smith sensitive.
A further test relates to Enterococcus. In words: In vitro antibacterial activity against Enterococcus ATCC 29212.
The test system of test [10] is Escherichia coli. As to the kind of experiment: In vitro antibacterial activity against Escherichia coli PRP1 Tet A.

Values after ≈ are worked out from the molar mass of the structure shown. Bounds are passed on as bounds.

Take `CN(C)c1cc(NC(=O)CN2CCC2)c(O)c2c1CC1CC3[C@H](N(C)C)C(=O)C(C(N)=O)=C(O)[C@@]3(O)C(=O)C1=C2O` (stereo partly drawn): the minimal inhibitory concentration (MIC) was 0.25 µg/mL (≈ 0.439 µM) in the test with Escherichia coli [1]; 0.25 µg/mL (≈ 0.439 µM) in the test on Escherichia coli [2]; 0.12 µg/mL (≈ 0.211 µM) in the test on Escherichia coli [3]; 2 µg/mL (≈ 3.51 µM) in the test with Staphylococcus aureus [4]; 0.5 µg/mL (≈ 0.878 µM) with Escherichia coli [5]; 0.25 µg/mL (≈ 0.439 µM) in the test on Staphylococcus aureus [6]. In addition, the MIC against Escherichia coli [7] is 0.5 µg/mL (≈ 0.878 µM); against Staphylococcus aureus [8], 0.12 µg/mL (≈ 0.211 µM); with Staphylococcus aureus [9], 0.25 µg/mL (≈ 0.439 µM); against Enterococcus, 0.25 µg/mL (≈ 0.439 µM); in the test with Escherichia coli [10], 1 µg/mL (≈ 1.76 µM).

Regarding `CN(C)[C@@H]1C(O)=C(C(N)=O)C(=O)[C@@]2(O)C(O)=C3C(=O)c4c(O)cccc4[C@@](C)(O)[C@H]3C[C@@H]12` [TETRACYCLINE], the minimal inhibitory concentration (MIC) is more than 32 µg/mL in the test with Escherichia coli [1]; 1 µg/mL (≈ 2.25 µM) against Escherichia coli [2]; 8 µg/mL (≈ 18 µM) against Escherichia coli [3]; more than 32 µg/mL in the test with Staphylococcus aureus [4]; more than 32 µg/mL against Escherichia coli [5]; more than 32 µg/mL in the test with Staphylococcus aureus [6]. The minimum inhibitory concentration (MIC) against Escherichia coli [7] was more than 32 µg/mL; with Staphylococcus aureus [8], 0.25 µg/mL (≈ 0.563 µM); against Staphylococcus aureus [9], 0.25 µg/mL (≈ 0.563 µM); against Enterococcus, 16 µg/mL (≈ 36 µM); against Escherichia coli [10], 32 µg/mL (≈ 72 µM).

With `CN(C)c1cc(NC(=O)Cn2ccnc2)c(O)c2c1CC1CC3[C@H](N(C)C)C(=O)C(C(N)=O)=C(O)[C@@]3(O)C(=O)C1=C2O` (stereo partly drawn), the MIC is more than 32 µg/mL against Escherichia coli [1]; more than 32 µg/mL in the test with Escherichia coli [2]; 32 µg/mL (≈ 55.1 µM) with Escherichia coli [3]; 32 µg/mL (≈ 55.1 µM) against Staphylococcus aureus [4]; more than 32 µg/mL against Escherichia coli [5]; 32 µg/mL (≈ 55.1 µM) against Staphylococcus aureus [6]. Besides, the minimum inhibitory concentration (MIC) with Escherichia coli [7] is more than 32 µg/mL; in the test on Staphylococcus aureus [8] it was 4 µg/mL (≈ 6.89 µM); against Staphylococcus aureus [9], 4 µg/mL (≈ 6.89 µM); in the test on Enterococcus it was 4 µg/mL (≈ 6.89 µM); against Escherichia coli [10], more than 32 µg/mL.

As to `CNCC(=O)Nc1cc(N(C)C)c2c(c1O)C(=O)C1=C(O)[C@]3(O)C(O)=C(C(N)=O)C(=O)[C@@H](N(C)C)C3CC1C2` (stereo partly drawn), the minimal inhibitory concentration (MIC) in the test on Escherichia coli [2] was 1 µg/mL (≈ 1.84 µM); in the test on Escherichia coli [3], 0.5 µg/mL (≈ 0.92 µM); against Staphylococcus aureus [4], 16 µg/mL (≈ 29.4 µM); against Escherichia coli [5], 8 µg/mL (≈ 14.7 µM); in the test with Staphylococcus aureus [6], 1 µg/mL (≈ 1.84 µM); against Escherichia coli [7], 1 µg/mL (≈ 1.84 µM). The minimal inhibitory concentration (MIC) against Staphylococcus aureus [8] stood at 0.5 µg/mL (≈ 0.92 µM); in the test on Staphylococcus aureus [9], 0.5 µg/mL (≈ 0.92 µM); against Enterococcus, 0.5 µg/mL (≈ 0.92 µM); against Escherichia coli [10], 16 µg/mL (≈ 29.4 µM).

Take `CCCCCCCCCCCNCC(=O)Nc1cc(N(C)C)c2c(c1O)C(=O)C1=C(O)[C@]3(O)C(O)=C(C(N)=O)C(=O)[C@@H](N(C)C)C3CC1C2` (stereo partly drawn): the minimal inhibitory concentration (MIC) came out at 32 µg/mL (≈ 46.8 µM) with Escherichia coli [1]; 16 µg/mL (≈ 23.4 µM) in the test on Escherichia coli [2]; 32 µg/mL (≈ 46.8 µM) against Escherichia coli [3]; 2 µg/mL (≈ 2.92 µM) in the test on Staphylococcus aureus [4]; 32 µg/mL (≈ 46.8 µM) in the test on Escherichia coli [5]; 16 µg/mL (≈ 23.4 µM) in the test on Staphylococcus aureus [6]. Also, the MIC in the test on Escherichia coli [7] worked out at 32 µg/mL (≈ 46.8 µM); in the test on Staphylococcus aureus [8], 0.5 µg/mL (≈ 0.731 µM); in the test with Staphylococcus aureus [9] it was 0.5 µg/mL (≈ 0.731 µM); with Enterococcus, 2 µg/mL (≈ 2.92 µM); in the test with Escherichia coli [10], 32 µg/mL (≈ 46.8 µM).

With `CN(C)c1cc(NC(=O)CN2CCCC2)c(O)c2c1CC1CC3[C@H](N(C)C)C(=O)C(C(N)=O)=C(O)[C@@]3(O)C(=O)C1=C2O` (stereo partly drawn), the minimal inhibitory concentration (MIC) was determined as 0.25 µg/mL (≈ 0.428 µM) against Escherichia coli [1]; 0.25 µg/mL (≈ 0.428 µM) against Escherichia coli [2]; 0.12 µg/mL (≈ 0.206 µM) against Escherichia coli [3]; 0.5 µg/mL (≈ 0.857 µM) against Staphylococcus aureus [4]; 0.25 µg/mL (≈ 0.428 µM) in the test with Escherichia coli [5]; 0.12 µg/mL (≈ 0.206 µM) against Staphylococcus aureus [6]. For the same molecule, the minimal inhibitory concentration (MIC) came out at 0.25 µg/mL (≈ 0.428 µM) in the test with Escherichia coli [7]; 0.12 µg/mL (≈ 0.206 µM) against Staphylococcus aureus [8]; 0.12 µg/mL (≈ 0.206 µM) against Staphylococcus aureus [9]; 0.12 µg/mL (≈ 0.206 µM) against Enterococcus; 0.5 µg/mL (≈ 0.857 µM) against Escherichia coli [10].

Consider `CN(C)c1cc(NC(=O)CNC2CCCCCCC2)c(O)c2c1CC1CC3[C@H](N(C)C)C(=O)C(C(N)=O)=C(O)[C@@]3(O)C(=O)C1=C2O` (stereo partly drawn), for which the minimal inhibitory concentration (MIC) with Escherichia coli [1] was determined as 2 µg/mL (≈ 3.13 µM); against Escherichia coli [2], 4 µg/mL (≈ 6.25 µM); against Escherichia coli [3], 0.5 µg/mL (≈ 0.782 µM); against Staphylococcus aureus [4], 0.5 µg/mL (≈ 0.782 µM); in the test on Escherichia coli [5] it was 2 µg/mL (≈ 3.13 µM); against Staphylococcus aureus [6], 1 µg/mL (≈ 1.56 µM). Moreover, the MIC is 4 µg/mL (≈ 6.25 µM) with Escherichia coli [7]; 0.25 µg/mL (≈ 0.391 µM) against Staphylococcus aureus [8]; 0.5 µg/mL (≈ 0.782 µM) against Staphylococcus aureus [9]; 0.25 µg/mL (≈ 0.391 µM) against Enterococcus; 2 µg/mL (≈ 3.13 µM) in the test with Escherichia coli [10].

Consider `CN(C)CC(=O)Nc1cc(N(C)C)c2c(c1O)C(=O)C1=C(O)[C@]3(O)C(O)=C(C(N)=O)C(=O)[C@@H](N(C)C)C3CC1C2` (stereo partly drawn), for which the MIC was 0.25 µg/mL (≈ 0.448 µM) with Escherichia coli [1]; 0.25 µg/mL (≈ 0.448 µM) against Escherichia coli [2]; 0.12 µg/mL (≈ 0.215 µM) in the test with Escherichia coli [3]; 0.25 µg/mL (≈ 0.448 µM) with Staphylococcus aureus [4]; 1 µg/mL (≈ 1.79 µM) with Escherichia coli [5]; 0.25 µg/mL (≈ 0.448 µM) with Staphylococcus aureus [6]. In addition, the minimal inhibitory concentration (MIC) in the test on Escherichia coli [7] was 0.25 µg/mL (≈ 0.448 µM); against Staphylococcus aureus [8], 0.03 µg/mL (≈ 0.0538 µM); with Staphylococcus aureus [9], 0.06 µg/mL (≈ 0.108 µM); in the test with Enterococcus it was 0.06 µg/mL (≈ 0.108 µM); against Escherichia coli [10], 1 µg/mL (≈ 1.79 µM).

In the case of `CN(C)c1cc(NC(=O)CNC2CC3CCC2C3)c(O)c2c1CC1CC3[C@H](N(C)C)C(=O)C(C(N)=O)=C(O)[C@@]3(O)C(=O)C1=C2O` (stereo partly drawn), the minimal inhibitory concentration (MIC) with Escherichia coli [1] was found to be 0.5 µg/mL (≈ 0.802 µM); in the test with Escherichia coli [2], 0.5 µg/mL (≈ 0.802 µM); with Escherichia coli [3], 0.25 µg/mL (≈ 0.401 µM); against Staphylococcus aureus [4], 0.5 µg/mL (≈ 0.802 µM); against Escherichia coli [5] it was 0.5 µg/mL (≈ 0.802 µM); with Staphylococcus aureus [6], 0.5 µg/mL (≈ 0.802 µM). Moreover, the minimal inhibitory concentration (MIC) against Escherichia coli [7] worked out at 0.5 µg/mL (≈ 0.802 µM); in the test on Staphylococcus aureus [8], 0.25 µg/mL (≈ 0.401 µM); in the test with Staphylococcus aureus [9], 0.25 µg/mL (≈ 0.401 µM); against Enterococcus it was 0.12 µg/mL (≈ 0.192 µM); against Escherichia coli [10], 1 µg/mL (≈ 1.6 µM).

As usually defined, the MIC is the least concentration at which growth counts as inhibited. A high value points to a less susceptible organism.
